Test results: patent US20240376123A1, “KRAS G12D INHIBITORS AND USES THEREOF” (SUZHOU ZANRONG PHARMA LIMITED, priority 2021, published 2024)

Columns and labels:
[1] = test system: GP2D (Cobioer CBP60010) cells; experiment: KRAS G12D 2D CellTiter-Glo proliferation assay, GP2D; type: cell-based; details: 2D proliferation, 72 hours
Protocol: (§1) AsPC-1 (ATCC CRL-1682) and LS513 (ATCC CRL-2134) cells were purchased from ATCC, GP2D (Cobioer CBP60010) cells was purchased from Cobioer biosciences CO., LTD, and each cell was cultured in medium supplemented with 10% fetal bovine serum (FBS), according to the protocol recommended by the manufacture. Cells were seeded 800 cells/well in 384-well plates (Corning) and incubated at 37° C., 5% CO2 for 18 hours. Serially diluted compound was added to the cells, and plates were incubated at 37° C., 5% CO2 for 72 hours. Cell viability was measured using a CellTiter-Glo® Luminescent Cell Viability Assay kit (Promega) according to the manufacturer's protocol.
(§2) The 2D and 3D proliferation data of the exemplary compounds of the present disclosure in different cell lines are shown in Table 3.

[2] = test system: HPAC (ATCC CRL-2119) cells; experiment: KRAS G12D 3D CellTiter-Glo proliferation assay, HPAC; type: cell-based; details: Homo sapiens, 168 h, 3D proliferation, 7 days, CellTiter-Glo 3D
Protocol: (§3) HPAC (ATCC CRL-2119) and AsPC-1 (ATCC CRL-1682) cells were purchased from ATCC, and each cell was cultured in medium supplemented with 10% fetal bovine serum (FBS), according to the protocol recommended by the manufacture. Serially diluted compound was added to 384-well Ultra-Low Attachment Surface round bottom plate (Corning). 400 cells/well were seeded in plate and incubated at 37° C., 5% CO2 for 7 days. Cell viability was measured using a CellTiter-Glo® 3D Cell Viability Assay kit (Promega) according to the manufacturer's protocol.
as §2

[3] = test system: p-ERK in PNAC-1/HPAC cell; experiment: Phospho-ERK 1/2 assay (Table 1); type: cell-based; details: Homo sapiens; PNAC-1/HPAC cell, 3 hours compound incubation; read-out: p-ERK IC50
Protocol: (§4) Allow PNAC-1/HPAC cell growth in a T75 flask in DMEM and 10% 1 fetal calf serum (FCS; Gibco), using standard tissue culture procedures until ˜80% confluency is achieved. Day 1, seed 6000 cells/well in 384 well plate and incubate at 37° C., 5% CO2. Add diluted compound by Echo 550, final DMSO is 0.5%, incubate cells at 37° C., 5% CO2 for 3 hours. Then, remove medium and fix cells with 3.7% formaldehyde in PBS (PFA) by Apricot. Wash with PBS once. Permeabilize cells with cold 100% methanol and repeat wash once with PBS once. Add Li-Cor blocking buffer to each well and incubate 1.5 hours at RT. Remove blocking buffer and add primary antibody mixture (rabbit anti pERK, mouse anti GAPDH). Incubate at 4° C. overnight. Day 2, wash with PBST (Tween-20 in PBS) with total 3 times and then add secondary antibody mixture (goat anti rabbit 800CW (1:800 dilution in the combined solution) and goat anti mouse 680RD (1:800 dilution in the combined solution)), incubate for 60 minutes at RT away from light. Repeat washing with PBST 3 times. After final wash, centrifuge plate up-side-down at 1000 rpm to remove wash solution completely from wells. Before plate scanning, clean the bottom plate surface and the Odyssey* Imager scanning bed (if applicable) with moist, lint-free tissue to avoid any obstructions during scanning. Scan plate with detection in both 700 and 800 nm channels.

[4] = test system: LS513 (ATCC CRL-2134) cells; experiment: KRAS G12D 2D CellTiter-Glo proliferation assay, LS513; type: cell-based; details: Homo sapiens, LS-513, 2D proliferation, 72 hours
Protocol: as §1, §2

[5] = test system: AsPC-1 (ATCC CRL-1682) cells; experiment: KRAS G12D 2D CellTiter-Glo proliferation assay, AsPC-1; type: cell-based; details: Homo sapiens, ASPC1, 2D proliferation, 72 hours
Protocol: as §1, §2

[6] = test system: AsPC-1 (ATCC CRL-1682) cells; experiment: KRAS G12D 3D CellTiter-Glo proliferation assay, AsPC-1; type: cell-based; details: Homo sapiens, ASPC1, 168 h; 3D proliferation, 7 days, CellTiter-Glo 3D
Protocol: as §3, §2

[7] = In vivo oral bioavailability assay; details: Balb/c mice female, IV bolus 1 mg/kg and oral gavage 30 mg/kg, single dose
Protocol: Single dose following IV bolus (1 mg/kg, 0.2 mg/mL in 1% DMSO, 99% SBE-β-CD (10% w/v) in water) and oral gavage (30 mg/kg, 3 mg/mL in 1% MC in DI water) administration of test compound in Balb/c Mice female. The blood samples were collected at 2 min, 5 min, 10 min, 30 min, 1 hr, 2 hr, 4 hr, 8 hr and 24 hr (additional 32 hr and 48 hr for MRTX1133) after IV bolus, at 15 min, 30 min, 1 hr, 1.5 hr, 2 hr, 3 hr, 4 hr, 8 hr and 24 hr (additional 32 hr and 48 hr for MRTX1133) after PO administration. The plasma concentrations of compounds were determined with UPLC-MS/MS.

[8] = test system: Panc-1 p-ERK; experiment: Phospho-ERK 1/2 assay, Panc-1 (Table 2); type: cell-based; details: Homo sapiens; Panc-1 cells
Protocol: as §4
(§5) Table 2 describes the p-ERK IC50 values and selectivity over WT-KRAS cell line MKN-1 of the exemplary compounds of the present disclosure and reference compound MRTX-1133.

[9] = test system: WT-KRAS cell line MKN-1; experiment: Phospho-ERK 1/2 assay, WT-KRAS cell line MKN-1 (Table 2); type: cell-based; details: for IC50: Homo sapiens, WT-KRAS cell line MKN-1, p-ERK; for Selectivity Fold: selectivity over WT-KRAS cell line MKN-1 vs Panc-1 p-ERK
Protocol: as §4, §5

Q: What does the source list for Oc1cc(Cl)c(C2CC2)c(-c2nc3c4c(nc(OC[C@@]56CCCN5C[C@H](F)C6)nc4c2F)N2C[C@@H]4CC[C@@H](N4)C2CO3)c1 (stereo partly drawn) [Compound 24, 3-chloro-4-cyclopropyl-5-((6R,9S)-1-fluoro-12-(((2R,7aS)-2-fluorotetrahydro-1H-pyrrolizin-7a(5H)-yl)methoxy)-5a,6,7,8,9,10-hexahydro-5H-4-oxa-3,10a,11,13,14-pentaaza-6,9-methanonaphtho[1,8-ab]heptalen-2-yl)phenol]?
A: IC50 [1]: 2.2 nM; IC50 [2]: 7.1 nM; IC50 [3]: 7 nM; IC50 [4]: 93 nM; IC50 [5]: 71 nM; IC50 [6]: 8.7 nM

Q: What does the source list for C#Cc1c(F)ccc2cccc(-c3nc4c5c(nc(OC[C@@]67CCCN6C[C@H](F)C7)nc5c3F)N3CC5CCC(N5)[C@H]3CO4)c12 (single isomer, unassigned) [Compound 10]?
A: Bioavailability (%) [7]: 37.7%; Fa*Fg (%) [7]: 54.0%; IC50 [1]: 15 nM; IC50 [2]: 28 nM; IC50 [3]: 2 nM; IC50 [8]: 2 nM; IC50 [4]: 238 nM; IC50 [5]: 490 nM; IC50 [9]: 343 nM; Selectivity Fold [9]: 171 Fold; IC50 [6]: 48 nM

Q: With CCc1c(F)ccc2cc(O)cc(-c3nc4c5c(nc(OC[C@@]67CCCN6C[C@H](F)C7)nc5c3F)N3C[C@H]5CC[C@H](N5)[C@H]3CO4)c12 [Compound 28, 5-ethyl-6-fluoro-4-((5aS,6S,9R)-1-fluoro-12-(((2R,7aS)-2-fluorotetrahydro-1H-pyrrolizin-7a(5H)-yl)methoxy)-5a,6,7,8,9,10-hexahydro-5H-4-oxa-3,10a,11,13,14-pentaaza-6,9-methanonaphtho[1,8-ab]heptalen-2-yl)naphthalen-2-ol] as the molecule, how does the IC50 [1] read?
A: 1.2 nM

Q: And the IC50 [2]?
A: 3.3 nM

Q: What about the IC50 [3] of the same molecule?
A: 0.76 nM

Q: And the IC50 [8]?
A: 0.76 nM

Q: What about the IC50 [4] of the same molecule?
A: 25.2 nM

Q: And the IC50 [5]?
A: 35 nM

Q: And the IC50 [9]?
A: 76 nM

Q: What about the “Selectivity Fold” value [9] of the same molecule?
A: 100 Fold

Q: And the IC50 [6]?
A: 4.7 nM

Q: With C#Cc1cccc2cc(O)cc(-c3nc4c5c(nc(OC[C@@]67CCCN6C[C@H](F)C7)nc5c3F)N3C[C@@H]5CC[C@@H](N5)C3CO4)c12 (stereo partly drawn) [Compound 5, 5-ethynyl-4-((6R,9S)-1-fluoro-12-(((2R,7aS)-2-fluorotetrahydro-1H-pyrrolizin-7a(5H)-yl)methoxy)-5a,6,7,8,9,10-hexahydro-5H-4-oxa-3,10a,11,13,14-pentaaza-6,9-methanonaphtho[1,8-ab]heptalen-2-yl)naphthalen-2-ol] as the molecule, how does the IC50 [3] read?
A: 77 nM

Q: Which IC50 [3] does the source give for C#Cc1c(F)ccc2cc(O)cc(-c3nc4c5c(nc(OC[C@@]67CCCN6C[C@H](F)C7)nc5c3F)N3C[C@H]5CC[C@H](N5)[C@H]3CO4)c12 [Compound 111, 5-ethynyl-6-fluoro-4-((5aS,6S,9R)-1-fluoro-12-(((2R,7aS)-2-fluorotetrahydro-1H-pyrrolizin-7a(5H)-yl)methoxy)-5a,6,7,8,9,10-hexahydro-5H-4-oxa-3,10a,11,13,14-pentaaza-6,9-methanonaphtho[1,8-ab]heptalen-2-yl)naphthalen-2-ol] here?
A: 12 nM

Q: For Fc1cc2cccc(F)c2c(-c2nc3c4c(nc(OC[C@@]56CCCN5C[C@H](F)C6)nc4c2F)N2C[C@@H]4CC[C@@H](N4)C2CO3)n1 (stereo partly drawn) [Compound 18, (6R,9S)-2-(3,8-difluoroisoquinolin-1-yl)-1-fluoro-12-(((2R,7aS)-2-fluorotetrahydro-1H-pyrrolizin-7a(5H)-yl)methoxy)-5a,6,7,8,9,10-hexahydro-5H-4-oxa-3,10a,11,13,14-pentaaza-6,9-methanonaphtho[1,8-ab]heptalene], which IC50 [3] is on record?
A: 404 nM

Q: Which results are given for C#Cc1c(F)ccc2cc(O)cc(-c3ncc4c(N5CC6CCC(C5)N6)nc(OC[C@@]56CCCN5C[C@H](F)C6)nc4c3F)c12 [MRTX-1133, reference compound]?
A: Bioavailability (%) [7]: 0.66%; Fa*Fg (%) [7]: 0.95%; IC50 [8]: 2.3 nM; IC50 [9]: 83 nM; Selectivity Fold [9]: 36 Fold

Q: For C#Cc1c(F)ccc2cc(O)cc(-c3nc4c5c(nc(OC[C@@]67CCCN6C[C@H](F)C7)nc5c3F)N3C[C@@H]5CC[C@@H](N5)C3CO4)c12 (stereo partly drawn) [Compound 7, 5-ethynyl-6-fluoro-4-((6R,9S)-1-fluoro-12-(((2R,7aS)-2-fluorotetrahydro-1H-pyrrolizin-7a(5H)-yl)methoxy)-5a,6,7,8,9,10-hexahydro-5H-4-oxa-3,10a,11,13,14-pentaaza-6,9-methanonaphtho[1,8-ab]heptalen-2-yl)naphthalen-2-ol], which IC50 [3] is on record?
A: 34 nM

Q: For C#Cc1c(F)ccc2cccc(-c3nc4c5c(nc(OCC6(CN7CCOC[C@H]7C)CC6)nc5c3F)N3C[C@H]5CC[C@H](N5)[C@H]3CO4)c12 [Compound 42, (5aS)-2-(8-ethynyl-7-fluoronaphthalen-1-yl)-1-fluoro-12-((1-(((R)-3-methylmorpholino)methyl)cyclopropyl)methoxy)-5a,6,7,8,9,10-hexahydro-5H-4-oxa-3,10a,11,13,14-pentaaza-6,9-methanonaphtho[1,8-ab]heptalene], which IC50 [3] is on record?
A: 159 nM

Q: Which IC50 [3] does the source give for Fc1ccc2cccc(-c3nc4c5c(nc(OC[C@@]67CCCN6C[C@H](F)C7)nc5c3F)N3C[C@@H]5CC[C@@H](N5)C3CO4)c2c1F (stereo partly drawn) [Compound 14, (6R,9S)-2-(7,8-difluoronaphthalen-1-yl)-1-fluoro-12-(((2R,7aS)-2-fluorotetrahydro-1H-pyrrolizin-7a(5H)-yl)methoxy)-5a,6,7,8,9,10-hexahydro-5H-4-oxa-3,10a,11,13,14-pentaaza-6,9-methanonaphtho[1,8-ab]heptalene] here?
A: 141 nM

Q: With N#Cc1cccc2cccc(-c3nc4c5c(nc(OC[C@@]67CCCN6C[C@H](F)C7)nc5c3F)N3C[C@@H]5CC[C@@H](N5)C3CO4)c12 (stereo partly drawn) [Compound 20, 8-((6R,9S)-1-fluoro-12-(((2R,7aS)-2-fluorotetrahydro-1H-pyrrolizin-7a(5H)-yl)methoxy)-5a,6,7,8,9,10-hexahydro-5H-4-oxa-3,10a,11,13,14-pentaaza-6,9-methanonaphtho[1,8-ab]heptalen-2-yl)-1-naphthonitrile] as the molecule, how does the IC50 [3] read?
A: 735 nM

Q: For Fc1cccc(-c2nc3c4c(nc(OC[C@@]56CCCN5C[C@H](F)C6)nc4c2F)N2C[C@@H]4CC[C@@H](N4)C2CO3)c1C1CC1 (stereo partly drawn) [Compound 21, (6R,9S)-2-(2-cyclopropyl-3-fluorophenyl)-1-fluoro-12-(((2R,7aS)-2-fluorotetrahydro-1H-pyrrolizin-7a(5H)-yl)methoxy)-5a,6,7,8,9,10-hexahydro-5H-4-oxa-3,10a,11,13,14-pentaaza-6,9-methanonaphtho[1,8-ab]heptalene], which IC50 [3] is on record?
A: 1230 nM
